Test results: US20180125835A1, “Dosage and Use of an A2A Antagonist” (H. Lundbeck A/S, priority 2014, published 2018)
Positions count from the first letter of the chain named.

Key:
A1 receptor [1] = target: T1, A1 receptor (Homo sapiens, UniProt P30542); assay: Adenosine receptor binding affinity, human A1
T1 sequence (P30542 1-326): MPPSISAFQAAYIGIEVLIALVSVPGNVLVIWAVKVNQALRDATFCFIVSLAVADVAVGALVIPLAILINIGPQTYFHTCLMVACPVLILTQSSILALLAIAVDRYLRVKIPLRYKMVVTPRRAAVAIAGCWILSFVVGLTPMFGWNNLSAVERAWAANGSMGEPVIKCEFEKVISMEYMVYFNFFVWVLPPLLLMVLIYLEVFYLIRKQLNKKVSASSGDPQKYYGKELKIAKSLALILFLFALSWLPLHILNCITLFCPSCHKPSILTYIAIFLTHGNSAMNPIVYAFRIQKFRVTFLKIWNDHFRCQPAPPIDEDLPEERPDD

A3 = target: T2, A3 (Homo sapiens, UniProt P0DMS8); assay: Adenosine receptor binding affinity, human A3
T2 sequence (P0DMS8 1-318): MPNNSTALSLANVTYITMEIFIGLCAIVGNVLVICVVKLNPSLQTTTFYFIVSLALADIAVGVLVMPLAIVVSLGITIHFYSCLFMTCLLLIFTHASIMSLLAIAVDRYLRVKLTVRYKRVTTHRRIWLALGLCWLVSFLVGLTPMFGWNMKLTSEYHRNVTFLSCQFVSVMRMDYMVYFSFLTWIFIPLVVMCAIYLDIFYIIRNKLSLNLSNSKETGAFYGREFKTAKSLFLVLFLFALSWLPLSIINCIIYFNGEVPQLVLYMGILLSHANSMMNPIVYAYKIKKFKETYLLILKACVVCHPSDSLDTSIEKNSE

A1 receptor [2] = target: T3, A1 receptor (Callithrix jacchus, UniProt U3EV00); assay: Adenosine receptor binding affinity, marmoset A1
T3 sequence (U3EV00 1-326): T1 sequence (P30542 1-326) with A157E, M162V, P314T

A2A receptor [3] = target: A2A receptor (Callithrix jacchus, UniProt A0A8I3X4X6); assay: Adenosine receptor binding affinity, marmoset A2A
A1 receptor [4] = target: T4, A1 receptor (Canis lupus familiaris, UniProt P11616); assay: Adenosine receptor binding affinity, dog A1
T4 sequence (P11616 1-326): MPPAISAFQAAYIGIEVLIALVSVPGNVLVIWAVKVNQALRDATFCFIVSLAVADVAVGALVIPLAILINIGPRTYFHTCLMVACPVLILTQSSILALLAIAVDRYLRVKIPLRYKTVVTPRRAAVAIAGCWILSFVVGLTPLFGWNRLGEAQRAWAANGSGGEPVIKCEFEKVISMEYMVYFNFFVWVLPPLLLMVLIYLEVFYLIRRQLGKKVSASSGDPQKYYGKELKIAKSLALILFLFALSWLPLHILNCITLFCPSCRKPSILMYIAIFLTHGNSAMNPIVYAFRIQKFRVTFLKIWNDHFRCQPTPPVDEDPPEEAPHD

A2A receptor [5] = target: A2A receptor (Canis lupus familiaris, UniProt P11617); assay: Adenosine receptor binding affinity, dog A2A
A2A receptor [6] = target: A2A receptor (Rattus norvegicus, UniProt P30543); assay: Adenosine receptor binding affinity, rat A2A
A2A receptor [7] = target: A2A receptor (Mus musculus, UniProt Q60613); assay: Adenosine receptor binding affinity, mouse A2A
[8] = tested on: 57 counter-screen targets (receptors, ion channels and transporters); assay: Counter-screen binding panel of CNS targets
[9] = PET study, pharmacokinetic assessments; format: in vivo; settings: human, plasma, single oral doses 0.5 to 5 mg
Description: The pharmacokinetic parameters of compound 504 were estimated using non-compartmental analysis.

Long Evans rats = assay: 5-choice serial reaction time task (5-CSRTT); format: in vivo, rat
Description: (A) Testing under standard conditions, i.e. equivalent to final conditions to which the animals were trained, i.e. stimulus duration (SD) 0.75 seconds (s), inter-trial interval (ITI) 5 s, 100 trials. The purpose of this condition being to measure drug effect on performance under standard conditions. (B) Testing under conditions of extended (long) ITI, i.e. low event rate, SD 0.3 s, ITI 5, 7.5, 10 s, 120 trials. The purpose of this condition being to measure drug effect on performance under lower event rate requiring the animal to delay its responding. (C) Testing under conditions of short ITI, i.e. high event rate, SD 0.3 s, ITI 3, 4, 5 s, 120 trials. The purpose of this condition to measure drug effect on performance under high event rate requiring the animal to rapidly process sensory information. (D) Testing under conditions of extended trials, i.e. SD 0.3 s, ITI 5 s, 250 trials. The purpose of this condition to measure drug effect on performance under extended trials, testing sustained attention or vigilance.
Sixteen (16) experimentally naïve, male Long Evans rats were trained to asymptotic performance in the 5-CSRTT over a period of approximately 2-3 months. The rats were trained to final stimulus duration (SD) of 0.75 s, 5 s inter-trial interval (ITI), 5 s limited hold (LH), 100 trials per session. Target performance levels under these conditions was in the range of >80% accuracy and <20% omissions.
Once the group of animals were trained, multiple drug studies according to various experimental tasks (see table 2 below) was tested in the same cohort of rats. […] The study design was made up of 4 experiments, with each experiment 2-3 weeks in duration and a 1 week intervening period between each experiment.

A2A receptor [10] = target: A2A receptor (Homo sapiens, UniProt P29274); assay: biochemical
A2A receptor (Homo sapiens, UniProt P29274), sequence (P29274 whole entry): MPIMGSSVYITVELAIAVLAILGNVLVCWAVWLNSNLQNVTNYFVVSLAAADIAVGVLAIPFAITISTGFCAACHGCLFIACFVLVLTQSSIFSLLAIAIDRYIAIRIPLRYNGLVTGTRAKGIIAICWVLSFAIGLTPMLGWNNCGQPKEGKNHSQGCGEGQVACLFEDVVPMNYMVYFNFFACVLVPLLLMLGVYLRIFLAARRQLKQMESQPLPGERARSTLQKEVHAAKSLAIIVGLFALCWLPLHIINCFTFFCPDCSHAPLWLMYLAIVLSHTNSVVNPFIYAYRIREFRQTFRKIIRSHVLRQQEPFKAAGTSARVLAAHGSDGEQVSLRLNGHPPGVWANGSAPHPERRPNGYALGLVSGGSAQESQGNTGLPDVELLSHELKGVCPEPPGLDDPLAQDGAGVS

A2A receptor (Rattus norvegicus, UniProt P30543), sequence (P30543 whole entry): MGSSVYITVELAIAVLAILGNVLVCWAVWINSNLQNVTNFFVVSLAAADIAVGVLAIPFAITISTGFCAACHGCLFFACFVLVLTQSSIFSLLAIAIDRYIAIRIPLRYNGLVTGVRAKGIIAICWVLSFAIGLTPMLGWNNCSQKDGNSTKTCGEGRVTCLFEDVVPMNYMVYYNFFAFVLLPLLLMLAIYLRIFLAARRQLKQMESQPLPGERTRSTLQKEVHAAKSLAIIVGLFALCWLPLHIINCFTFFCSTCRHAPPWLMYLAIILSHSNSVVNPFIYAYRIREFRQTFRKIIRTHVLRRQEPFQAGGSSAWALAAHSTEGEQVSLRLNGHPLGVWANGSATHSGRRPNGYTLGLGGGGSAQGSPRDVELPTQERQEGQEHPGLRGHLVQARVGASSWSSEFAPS
A2A receptor (Callithrix jacchus, UniProt A0A8I3X4X6), sequence (A0A8I3X4X6 1-410): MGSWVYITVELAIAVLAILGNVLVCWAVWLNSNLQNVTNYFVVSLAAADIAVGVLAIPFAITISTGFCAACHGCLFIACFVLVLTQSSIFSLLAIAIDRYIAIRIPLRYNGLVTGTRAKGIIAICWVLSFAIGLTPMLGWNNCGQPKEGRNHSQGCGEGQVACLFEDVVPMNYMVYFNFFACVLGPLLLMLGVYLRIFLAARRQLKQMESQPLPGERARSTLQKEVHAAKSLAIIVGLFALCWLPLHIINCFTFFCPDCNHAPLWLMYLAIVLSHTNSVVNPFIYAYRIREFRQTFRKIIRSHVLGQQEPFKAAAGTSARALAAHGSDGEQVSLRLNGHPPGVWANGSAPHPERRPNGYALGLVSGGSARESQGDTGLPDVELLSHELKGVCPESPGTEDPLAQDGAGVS
A2A receptor (Canis lupus familiaris, UniProt P11617), sequence (P11617 whole entry): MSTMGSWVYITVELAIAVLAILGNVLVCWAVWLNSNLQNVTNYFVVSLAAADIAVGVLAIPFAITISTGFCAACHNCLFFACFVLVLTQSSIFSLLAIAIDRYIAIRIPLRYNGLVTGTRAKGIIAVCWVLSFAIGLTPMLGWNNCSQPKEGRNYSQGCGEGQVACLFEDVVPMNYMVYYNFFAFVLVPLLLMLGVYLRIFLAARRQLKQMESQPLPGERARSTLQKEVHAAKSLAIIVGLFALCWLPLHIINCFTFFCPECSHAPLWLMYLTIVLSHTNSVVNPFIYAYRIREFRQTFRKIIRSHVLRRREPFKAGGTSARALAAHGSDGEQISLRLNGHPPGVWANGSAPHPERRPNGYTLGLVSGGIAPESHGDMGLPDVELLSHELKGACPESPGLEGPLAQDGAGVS
A2A receptor (Mus musculus, UniProt Q60613), sequence (Q60613 whole entry): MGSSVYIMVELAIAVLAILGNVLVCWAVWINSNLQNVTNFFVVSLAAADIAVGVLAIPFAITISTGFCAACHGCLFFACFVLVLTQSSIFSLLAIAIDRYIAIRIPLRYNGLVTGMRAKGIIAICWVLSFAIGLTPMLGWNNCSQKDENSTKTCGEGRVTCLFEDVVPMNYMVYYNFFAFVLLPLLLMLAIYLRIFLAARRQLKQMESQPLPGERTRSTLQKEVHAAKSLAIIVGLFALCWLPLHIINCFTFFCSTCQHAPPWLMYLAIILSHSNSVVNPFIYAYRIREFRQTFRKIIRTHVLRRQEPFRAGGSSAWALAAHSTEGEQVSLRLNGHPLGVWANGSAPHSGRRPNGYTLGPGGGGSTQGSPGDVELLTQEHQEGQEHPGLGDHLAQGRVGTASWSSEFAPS

SMILES: Cc1ccc(C(=O)Nc2nc(-c3ccco3)c(C(=O)C3CCOCC3)s2)cn1 [Compound 504]
- Ki (A1 receptor [1]): 103000 ± 18400 pM
- Ki (A3): 428000 ± 72500 pM
- Ki (A1 receptor [2]): 305000 ± 6600 pM
- Ki (A2A receptor [3]): 113 ± 4.6 pM
- Ki (A1 receptor [4]): 450000 ± 51100 pM
- Ki (A2A receptor [5]): 283 ± 26.9 pM
- Ki (A2A receptor [6]): 100 ± 7.2 pM
- Ki (A2A receptor [7]): 322 ± 11.4 pM
- affinity for other receptors, ion channels and transporters ([8]; DA, 5-HT, Ach, GABA, Glu, opiates, cannabinoid, calcium, potassium channels, transporters): Little or no affinity
- inhibition of binding ([8]; at 10 μM, any of the 57 counter-screen targets): Less than 50%
- Tmax [9]: 1 to 2 h
- correct trials completed by all rats in Bin 5 (Long Evans rats; extended 250 trials, 0.1 mg/kg): at least 13
- decline in % correct and number of correct responses, increase in omissions over Bins 4 and 5 (Long Evans rats; extended 250 trials, 0.03-0.1 mg/kg oral, particularly 0.06-0.1 mg/kg): protected against the decline
- premature responses (Long Evans rats; long ITI, 0.06 mg/kg oral): increased
- accuracy under long ITI (Long Evans rats; long ITI, 0.06 mg/kg oral, P=0.09): non-significant trend of compound 504 to reduce accuracy
- performance in terms of choice accuracy (Long Evans rats; short ITI, 0.03-0.06 mg/kg oral, particularly at 3 s ITI): improved performance
- % correct, # incorrect responses, omissions, premature responses (Long Evans rats; short ITI, averaged over the multiple ITI): improving performance on each measure
- other measures (% correct, # correct/incorrect responses, omissions, magazine latency) (Long Evans rats; standard conditions): unaffected
- speed of responding (correct latency) (Long Evans rats; standard conditions, doses 0.03-0.1 mg/kg oral): significantly increased speed of responding
- premature responding (Long Evans rats; standard conditions, significant only at 0.1 mg/kg): increased premature responding
- Ki (A2A receptor [10]): 118 ± 2.3 pM
